The structures appear in SMILES notation.

For data set [1], the system named is A549 cells infected with RSV. The data set is classed as cell-based, human.
Another data set deals with RSV. The data set is described as follows: RSV replication in A549 cells, viral titers by plaque assay. As to conditions: PAG 20 or 40 mM, 24 h p.i. It is filed as cell-based, RSV Long strain.

Turning to `C#CCC(N)C(=O)O` (racemic) [PAG, DL-propargylglycin], the “levels of production of several cytokines and chemokines in response to RSV infection” value in data set [1] was “significantly increased”. Further, in the data set on uninfected cells, the “basal cellular mediator secretion” value is “no effect” and the “uninfected-cell viability (trypan blue exclusion)” value is “no effect”. For the same molecule, the “increase in viral infectious-particle formation (plaque assay)” value in the data set with RSV is 3- to 4 fold.
